Experimental data published in article PMC7803973, “Structural basis of malaria parasite phenylalanine tRNA-synthetase inhibition by bicyclic azetidines” (Nature Communications, 2021).
“And” between values parts separate entries of the source, which are not always exact repeats. Equal values may be shown once. “Also recorded” adds a separate entry of the source.

How the values were obtained:
[1] = system: Plasmodium falciparum strain K1; assay: microbe, parasite or virus in culture; type: cell-based
Description: The cultivation of P. falciparum was conducted according to Trager’s method with some modification. Precisely, parasites were kept in culture flasks with RPMI1640 medium supplemented with 10% human plasma and 2% fresh human erythrocytes and incubated at 37 °C with the gas condition of 5% CO2 and 5% O2. The parasitemia (percentage of infected erythrocytes to total erythrocytes) were kept within 0.25–10%. Culture medium was replaced, and fresh erythrocytes were supplied every 2–3 days. Drug susceptibility test was conducted according to Desjardins’s method[18] with some modification. […] […] The plates were kept at 37 °C with the gas condition of 5% CO2 and 5% O2 for 72 h and then parasite growth was quantified with Makler’s method to detect plasmdoial lactate dehydrogenase[19] with some modification. Precisely, culture plates were kept in freezer overnight and then thawed at 37 °C to disrupt the erythrocytes and parasite cells. In the new 96-well titer plates, 100 μl of enzyme reaction solution (110 mM Li-lactate, 0.5 mM acetylpyridine-adenine dinucleotide, 50 mM Tris (pH 7.5), 10 mM EDTA, 50 mM KCl, and 15 g l^−1 PEG6000) and 20 µl of freeze-thaw culture were mixed in each well and then kept at room temperature for 30 min. The detection solution was prepared by mixing equal volume of 2 mg ml^−1 nitro blue tetrazolium and 0.1 mg ml^−1 phenazine ethosulfate and 20 µl of the solution was added to each well.

PfcFRS = target: T1, PfcFRS (Plasmodium falciparum, UniProt Q8I246); assay: PfcFRS mode of inhibition study (malachite green); type: biochemical; conditions: for 1/v (0.5 × IC50 ): inhibitor 0.5 × IC50; for 1/V (1 × IC50 ) / 1/v (1 × IC50 ): inhibitor 1 × IC50
T1 sequence (Q8I246 1-575): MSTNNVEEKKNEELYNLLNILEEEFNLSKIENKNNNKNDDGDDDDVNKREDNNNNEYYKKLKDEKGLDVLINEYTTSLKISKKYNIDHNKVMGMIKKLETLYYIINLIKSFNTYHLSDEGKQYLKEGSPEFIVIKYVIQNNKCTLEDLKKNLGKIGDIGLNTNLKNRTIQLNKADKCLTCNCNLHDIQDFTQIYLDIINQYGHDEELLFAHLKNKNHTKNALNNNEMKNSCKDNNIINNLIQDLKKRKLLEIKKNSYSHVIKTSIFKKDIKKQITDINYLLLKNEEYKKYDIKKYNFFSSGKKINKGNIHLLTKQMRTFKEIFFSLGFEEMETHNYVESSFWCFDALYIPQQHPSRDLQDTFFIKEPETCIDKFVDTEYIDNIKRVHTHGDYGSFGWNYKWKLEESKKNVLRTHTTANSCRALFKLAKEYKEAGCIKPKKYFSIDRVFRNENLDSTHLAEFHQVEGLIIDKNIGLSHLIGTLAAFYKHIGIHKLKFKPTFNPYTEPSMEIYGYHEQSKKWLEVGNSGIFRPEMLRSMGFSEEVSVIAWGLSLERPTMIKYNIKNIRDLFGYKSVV
T1 sequence (Q8IIW2 1-623 partner): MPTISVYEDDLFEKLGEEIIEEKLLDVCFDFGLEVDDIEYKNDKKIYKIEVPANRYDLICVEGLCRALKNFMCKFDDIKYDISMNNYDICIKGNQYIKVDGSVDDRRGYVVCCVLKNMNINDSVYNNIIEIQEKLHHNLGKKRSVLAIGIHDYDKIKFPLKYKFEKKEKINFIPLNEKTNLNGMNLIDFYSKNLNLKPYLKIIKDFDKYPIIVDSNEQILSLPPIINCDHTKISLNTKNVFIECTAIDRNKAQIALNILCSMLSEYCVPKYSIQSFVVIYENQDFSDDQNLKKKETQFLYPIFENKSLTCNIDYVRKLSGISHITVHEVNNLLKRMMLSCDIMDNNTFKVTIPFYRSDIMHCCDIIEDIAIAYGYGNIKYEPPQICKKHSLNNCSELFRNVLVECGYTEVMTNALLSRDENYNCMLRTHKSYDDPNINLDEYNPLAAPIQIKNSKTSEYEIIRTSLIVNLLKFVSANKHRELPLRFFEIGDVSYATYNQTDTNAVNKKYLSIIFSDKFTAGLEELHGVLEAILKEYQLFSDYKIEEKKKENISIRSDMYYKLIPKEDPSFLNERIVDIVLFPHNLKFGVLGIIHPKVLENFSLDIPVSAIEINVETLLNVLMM
Description: These were done using malachite green assay as per earlier published reports[1],[6]. Briefly, the reaction was performed for 100 µM ATP, 50 µM L-phenylalanine and 100 nM recombinant PheRS enzymes (Pf, Pv, Hs, Pf mutant (L550V)) in a buffer containing 30 mM HEPES (pH 7.5), 150 mM, NaCl, 30 mM KCl, 50 mM, MgCl2, 1 mM DTT, and 2 U/ml E. coli inorganic pyrophosphatase (NEB) at 37 °C. Enzymatic reactions (50 μl total volume) were performed in clear, flat-bottomed, 96-well plates (Costar 96-well standard microplates). The reaction mixture was incubated for 2 h at 37 °C. The reaction was stopped by adding 12.5 μl of malachite green solution to the reaction mixture and levels of inorganic phosphate (Pi) were detected after incubation of 5 min at room temperature. Absorbance was the measured at 620 nm using a Spectramax M2 (Molecular Devices). Reactions without FRS enzyme were performed as background controls, values of which were subtracted from the reactions with enzyme. BRD1389 was added to our aminoacylation assay reaction buffer in varying concentrations ranging from 0.1 nM to 10,000 nM. The IC50 value for the data is shown for three replicates as the mean ± SD.
To establish the mode of inhibition of BRD1389, data sets (generated using the malachite Green assay platform as described in the above enzyme inhibition assays method section) were collected by varying both the inhibitor and substrate concentrations.

[2] = ATP 15.6 uM, saturating L-Phe 1000 μM
[3] = ATP 31.25 uM, saturating L-Phe 1000 μM
[4] = ATP 62.5 uM, saturating L-Phe 1000 μM
[5] = ATP 125 uM, saturating L-Phe 1000 μM
[6] = ATP 250 uM, saturating L-Phe 1000 μM
[7] = ATP 500 uM, saturating L-Phe 1000 μM
[8] = L-Phe 0.015625 mM, saturating ATP 500 μM
[9] = L-Phe 0.031 mM, saturating ATP 500 μM
[10] = L-Phe 0.0625 mM, saturating ATP 500 μM
[11] = L-Phe 0.125 mM, saturating ATP 500 μM
[12] = L-Phe 0.25 mM, saturating ATP 500 μM
[13] = L-Phe 0.5 mM, saturating ATP 500 μM
[14] = L-Phe 1 mM, saturating ATP 500 μM

SMILES: COC[C@@H]1[C@H](c2ccc(C#Cc3ccccc3)cc2)[C@@H]2CN(C(=O)Nc3ccc(OC4CC4)cc3)C[C@@H](O)[C@@H](O)CN12 [BRD1389]
- % Parasite Growth ([1]; K1, 0.000976562 ug/mL): 92.8%
- % Parasite Growth ([1]; K1, 0.00195312 ug/mL): 94.4%
- % Parasite Growth ([1]; K1, 0.00390625 ug/mL): 90.7%
- % Parasite Growth ([1]; K1, 0.0078125 ug/mL): 40.5%
- % Parasite Growth ([1]; K1, 0.015625 ug/mL): 14.2%
- % Parasite Growth ([1]; K1, 0.03125 ug/mL): 15.9%
- % Parasite Growth ([1]; K1, 0.0625 ug/mL): 4.7%
- % Parasite Growth ([1]; K1, 0.125 ug/mL): 2.9%
- % Parasite Growth ([1]; K1, 0.25 ug/mL): 2.1%
- % Parasite Growth ([1]; K1, 0.5 ug/mL): 2.6%
- % Parasite Growth ([1]; K1, 1 ug/mL): 2.6%
- IC50 ([1]; Plasmodium falciparum, K1): 0.00685 µg/mL and 12.1 nM
- EC50 ([1]; Plasmodium falciparum, K1, 72 h): 12 nM
- Ki (PfcFRS; ATP varied, L-Phe saturating, non-competitive inhibition model): 10 ± 5 nM
- Ki (PfcFRS; L-Phe varied, ATP constant, global competitive inhibition model): 6 ± 2 nM
- Mode of inhibition with respect to ATP (PfcFRS; PfcFRS, ATP varied at saturating L-Phe): non-competitive inhibition; also recorded: likely a non-competitive inhibitor
- Mode of inhibition with respect to L-Phe (PfcFRS; PfcFRS, L-Phe varied at saturating ATP): competitive inhibition; also recorded: competitive inhibitor
- 1/v (0.5 × IC50 ) (PfcFRS; [2]): 50.7634
- 1/v (0.5 × IC50 ) (PfcFRS; [3]): 35.2611
- 1/v (0.5 × IC50 ) (PfcFRS; [4]): 25.2226
- 1/v (0.5 × IC50 ) (PfcFRS; [5]): 18.8398
- 1/v (0.5 × IC50 ) (PfcFRS; [6]): 16
- 1/v (0.5 × IC50 ) (PfcFRS; [7]): 13.77
- 1/v (0.5 × IC50 ) (PfcFRS; [8]): 19.05
- 1/v (0.5 × IC50 ) (PfcFRS; [9]): 12.5
- 1/v (0.5 × IC50 ) (PfcFRS; [10]): 10
- 1/v (0.5 × IC50 ) (PfcFRS; [11]): 8.3
- 1/v (0.5 × IC50 ) (PfcFRS; [12]): 7.2
- 1/v (0.5 × IC50 ) (PfcFRS; [13]): 6.5
- 1/v (0.5 × IC50 ) (PfcFRS; [14]): 6.2
- 1/V (1 × IC50 ) (PfcFRS; [2]): 66.6667
- 1/V (1 × IC50 ) (PfcFRS; [3]): 44.4444
- 1/V (1 × IC50 ) (PfcFRS; [4]): 40.1698
- 1/V (1 × IC50 ) (PfcFRS; [5]): 25.8
- 1/V (1 × IC50 ) (PfcFRS; [6]): 20
- 1/V (1 × IC50 ) (PfcFRS; [7]): 13.7741
- 1/v (1 × IC50 ) (PfcFRS; [8]): 30
- 1/v (1 × IC50 ) (PfcFRS; [9]): 18.03
- 1/v (1 × IC50 ) (PfcFRS; [10]): 12
- 1/v (1 × IC50 ) (PfcFRS; [11]): 9
- 1/v (1 × IC50 ) (PfcFRS; [12]): 8
- 1/v (1 × IC50 ) (PfcFRS; [13]): 7.2
- 1/v (1 × IC50 ) (PfcFRS; [14]): 7
